Results as given in patent publication US20080227799A1, “CXCR4 Antagonists Including Heteroatoms for the Treatment of Medical Disorders” (priority 2006, published 2008).
Entries after “also recorded” stand apart in the source; their conditions may differ.

Tests used:
SHIV = SHIV infection of model cells, p27 antigen capture; assay type: cell-based; conditions: 0.1, 1, 10 or 100 nM drug prior to infection
Method: The effect of the test compounds on HIV infection in model cells was analyzed by p27 antigen capture using SHIV infected cells. Cells were incubated with 0, 0.1, 1, 10 or 100 nM drug prior to infection with SHIV. Viral titer was measured after infection by analyzing levels of p27 antigen. […] The inhibition was measurable at 2 days, and continued to 5 day incubations.

CXCR4 [1] = target: T1, CXCR4 (Homo sapiens, UniProt P61073); experiment: Competition assay using biotin-labeled TN14003 and streptavidin-conjugated rhodamine on tumor cells; assay type: binding
T1 construct: endogenous in cells; probably MDA-MB-231
Excerpt: In a separate embodiment, a process for screening potential drug candidates is provided. The process includes providing a labeled peptide-based CXCR4 antagonist that has a detectable signal when bound to a CXCR4 receptor; contacting a CXCR4 receptor with at least one test molecule at a known concentration to form a test sample; contacting the test sample with the peptide-based antagonist; separately, contacting the peptide-based antagonist to a sample not including any test molecule to form a control sample; and comparing the signal from the test sample to the signal from the control sample. In a specific subembodiment, the peptide-based antagonist is derived from TN14003 (described in PCT Publication No. WO 04/087068 to Emory University). In a further subembodiment, the antagonist is labeled with a biotin molecule and the signal is elicited when the biotin-labeled antagonist is contacted with a streptavadin-conjugated signal molecule.
The peptide-based antagonist is typically a molecule with high affinity for the receptor. In one embodiment, the molecule is derived from the “T140” peptide antagonists. In a specific embodiment, the antagonist is TN14003 (described in PCT Publication No. WO 04/087068 to Emory University). The receptor is typically expressed in a cell line. The process can be performed as a dose-response curve. In this embodiment, the test compound is incubated with the receptor at varying concentrations and the signal elicited after binding of the labeled antagonist is measured and compared to control, as well as to each other.
Using biotin-labeled TN14003 along with streptavidin-conjugated rhodamine allowed a determination of the binding efficiency of these chemicals to the SDF-1 binding site of CXCR4 on tumor cells and compared it to AMD3100-SDF-1 interactions (FIG. 7). […] Cells were pre-incubated with different concentrations of AMD3100. […] Therefore, one of these compounds, WZZL811S, was selected to study its therapeutic potential based on potency and low toxicity to cells (FIG. 9).

MDA-MB-231 cells [2] = experiment: Matrigel invasion assay, CXCR4/SDF-1-mediated invasion; assay type: cell-based; conditions: 2 nM
Method: Lowering CXCR4 mRNA levels by siRNAs inhibited CXCR4/SDF-1-mediated invasion as measured by a matrigel invasion assay. The CXCR4 ligand, SDF-1 (400 ng/ml) was added to the lower chamber to attract CXCR4-positive breast cancer cells to migrate through the matrigel. The invasion of MDA-MB-231 cells transfected with siRNA1 decreased to 39±4% of the control cells, 51±8% with siRNA2, and only 16±6% with both siRNA1+2 (FIG. 3A).
WZZL811S was tested in a matrigel invasion assay to determine whether it can inhibit CXCR4/SDF-1-mediated invasion.

metastatic 686LN cells = experiment: 686LN head & neck cancer metastasis model, tail vein injection, FDG-PET; assay type: in vivo; conditions: 20 mg/mouse/twice weekly; thirty days
Method: The metastatic 686LN cells were injected intravenously through the tail vein to generate experimental animal models for Head & Neck cancer metastasis, modulated via CXCR4. […] These 3-D projection images show lung metastases well (bone mets and liver mets were apparent in axial section images of mice in control groups, data not shown).

[3] = tested on: human umbilical vein endothelial cells (HUVECs); experiment: Endothelial capillary tube formation assay; assay type: cell-based; conditions: 100 nM; SDF-1 100 ng/ml; 18 hours
Method: The anti-angiogenic effect of test compounds was measured by analyzing endothelial cell growth and tube formation. The angiogenic effect of SDF-1 (100 ng/ml) on capillary formation by human umbilical vein endothelial cells (HUVECs) was examined in vitro using Matrigel-coated 24-well plates precoated with Matrigel and incubated for 18 hours. The angiogenic effect of SDF-1 was inhibited by either 100 nM TN14003 (peptide-based CXCR4 antagonist) or WZZL811S treatment (FIG. 14a, graph FIG. 14b).

[4] = tested on: CXCR4/SDF-1-mediated Akt activation; experiment: SDF-1-stimulated Akt phosphorylation in MDA-MB-231 cells (western blot); assay type: cell-based; conditions: for SDF-1-stimulated phosphorylation of Akt: MDA-MB-231 cells, 100 ng/ml SDF-1, 30 min, dose-dependent; for concentration blocking Akt activation: 100 ng/ml SDF-1, 30 minutes, 0-1000 nM tested
Method: (§1) CXCR4/SDF-1 interaction activates PI3K/Akt and Ras/Raf/MEK/Erk pathways in a Gαi protein (PTX-sensitive)-dependent manner. Experiments were conducted to determine the effect of blocking CXCR4/SDF-1 interaction by either TN14003 or AMD3100 at different concentrations (0, 0.01, 0.1, 1, 10, 100, 1000 nM) on phosphorylations of Akt and Erk1/2 signaling. Incubating cells with 100 ng/ml of SDF-1 for 30 minutes activated Akt. […] However, the increase in Erk1/2 phosphorylation by SDF-1 was not significant as the increase in Akt phosphorylation.

MDA-MB-231 cells [5] = experiment: Cell viability of MDA-MB-231 cells; assay type: cell-based; conditions: 100 μM (the highest concentration tested)
[6] = tested on: CXCR4/SDF-1-mediated Erk1/2 phosphorylation; experiment: SDF-1-stimulated Erk1/2 phosphorylation; assay type: cell-based; conditions: data not shown
Method: as §1

CXCR4 [7] = experiment: CXCR4 protein levels after treating cells; assay type: cell-based; conditions: treated cells
[8] = withdrawn from clinical trials; cited from earlier work
MT-4 cells = conditions: cited from earlier work
HIV = conditions: MT-4 cells; read-out: concentration required for 50% protection of HIV-induced cytopathogenicity; cited from earlier work
CXCR4 [9] = target: T1, CXCR4; experiment: Immunofluorescence of biotin-labeled TN14003 on MDA-MB-231 cells preincubated with SDF-1; assay type: binding; conditions: 400 ng/ml SDF-1, 10 min
Method: Initially, experiments were performed to verify that TN14003 binds to the predicted SDF-1 binding sites on the CXCR4 receptor. In these studies, MDA-MB-231 cells were incubated in the absence (FIG. 1A, B) or presence (FIG. 1A, C) of 400 ng/ml of SDF-1α for 10 min, and then fixed in ice-cold acetone. Immunofluorescence of the biotin-labeled TN14003 was negative in both membrane and cytosol in the cells pretreated with SDF-1α for 10 min (FIG. 1A, C).

T1 sequence (P61073 whole entry): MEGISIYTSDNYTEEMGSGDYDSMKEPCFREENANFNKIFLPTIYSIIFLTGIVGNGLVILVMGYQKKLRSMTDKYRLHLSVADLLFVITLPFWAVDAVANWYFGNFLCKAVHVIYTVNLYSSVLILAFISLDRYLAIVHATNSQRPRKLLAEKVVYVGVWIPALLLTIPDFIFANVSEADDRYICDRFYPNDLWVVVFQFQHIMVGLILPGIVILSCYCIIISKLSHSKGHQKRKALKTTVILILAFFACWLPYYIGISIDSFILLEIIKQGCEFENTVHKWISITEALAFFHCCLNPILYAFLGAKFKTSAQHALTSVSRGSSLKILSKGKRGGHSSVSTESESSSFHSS

## c1ccc(NCc2ccc(CNc3ccccn3)cc2)nc1 [WZZL811S]
SHIV
  SHIV infection (p27 antigen levels): inhibited SHIV infection at all concentrations tested
CXCR4 [1]; cells pre-incubated with various concentrations, read-out: IC50, detection of CXCR4 by biotin-labeled TN14003 on pre-incubated cells
  IC50: < 1 nM
CXCR4 [1]; competition with biotin-labeled TN14003
  binding affinity to the ligand-binding site of CXCR4 on tumor cells: nano-molar concentration
MDA-MB-231 cells [2]
  CXCR4/SDF-1 mediated invasion of MDA-MB-231: as potent as TN14003; also recorded: blocked
Metastatic 686LN cells
  efficacy relative to TN14003: 80%
[3]
  angiogenic effect of SDF-1 on capillary tube formation: inhibited
[4]
  SDF-1-stimulated phosphorylation of Akt: blocked
MDA-MB-231 cells [5]
  cell viability of MDA-MB-231 cells: did not decrease cell viability

## C1=CC(CN2CCCNCCNCCCNCC2)CC=C1CN1CCCNCCNCCCNCC1 (stereo not shown) [AMD3100]
CXCR4 [1]; cells pre-incubated with different concentrations
  concentration needed to compete against biotin-labeled TN14003: 10 µM
[6]
  concentration attenuating Erk1/2 phosphorylation: 100 nM
CXCR4 [7]
  effect on CXCR4 protein levels: did not affect
[4]
  concentration blocking Akt activation: a few nano molar
  SDF-1-stimulated phosphorylation of Akt: blocked
[8]
  side effect in clinical study: cardiac-related side effect

## TN14003
[6]
  concentration attenuating Erk1/2 phosphorylation (in words): sub-nano molar concentration
MDA-MB-231 cells [2]
  CXCR4/SDF-1 mediated invasion of MDA-MB-231: blocked
MT-4 cells
  concentration leading to 50% toxicity: 410 µM
Metastatic 686LN cells
  metastasis of 686LN cells to organs (FDG-PET): failed to metastasize to any organs
[3]
  angiogenic effect of SDF-1 on capillary tube formation: inhibited
CXCR4 [7]
  effect on CXCR4 protein levels: did not affect
[4]
  concentration blocking Akt activation: sub-nano molar concentration
  SDF-1-stimulated phosphorylation of Akt: blocked
HIV
  EC50: 0.6 nM
CXCR4 [9]
  binding of biotin-labeled TN14003 to CXCR4 after SDF-1 preincubation: negative; also recorded: blocked

## c1cnc(NCc2ccc(CNc3ncccn3)cc2)nc1 [WZ40]
SHIV
  SHIV infection (p27 antigen levels): inhibited SHIV infection at all concentrations tested
